Experimental data reported in US12077503B2, “Substituted cyclic amides and their use as herbicides” (FMC CORPORATION, priority 2015, dated 2024).

Experiments:
Format in all cases: in vivo
[1] = system: corn (Zea mays); experiment: Test G Pre-Emergence Protocol; settings: Zea mays, pre-emergence, 312 h, evaluated after 13 days; for plant injury at 15.625 g/ha: 15.625 g ai/ha; for plant injury at 15.625 g/ha / plant injury at 250 g/ha: read-out: Corn damage rating (100=total damage to plant; 0=no damage to plant); for plant injury at 62.5 g/ha: 62.5 g ai/ha, 100=total damage to plant, 0=no damage to plant, read-out: Corn damage rating; for plant injury at 250 g/ha: 250 g ai/ha
How it was run: (§1)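 Under a 24/16° C day/night regime with 14 h light and 65% humidity, sown pots were sprayed after one day with compound (15.625, 62.5 or 250 g/ha; 50:50 acetone/water, 0.5% Tween 20). Damage was assessed visually 13 days later, 0 to 100.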

[2] = system: ivy-leaved morning glory (Ipomoea hederacea); experiment: Test G Pre-Emergence Protocol; settings: Ipomoea, pre-emergence, 312 h, evaluated after 13 days; for pest or weed control at 15.625 g/ha: 15.625 g ai/ha; for pest or weed control at 15.625 g/ha / pest or weed control at 250 g/ha: read-out: Morningglory, Ivy-leaved damage rating (100=total damage to plant; 0=no damage to plant); for pest or weed control at 62.5 g/ha: 62.5 g ai/ha, 100=total damage to plant, 0=no damage to plant, read-out: Morningglory, Ivy-leaved damage rating; for pest or weed control at 250 g/ha: 250 g ai/ha
How it was run: as §1

[3] = system: giant foxtail (Setaria faberi); experiment: Test G Pre-Emergence Protocol; settings: Setaria faberi, pre-emergence, 312 h, evaluated after 13 days; for pest or weed control at 15.625 g/ha: 15.625 g ai/ha; for pest or weed control at 15.625 g/ha / pest or weed control at 250 g/ha: read-out: Foxtail, Giant damage rating (100=total damage to plant; 0=no damage to plant); for pest or weed control at 62.5 g/ha: 62.5 g ai/ha, 100=total damage to plant, 0=no damage to plant, read-out: Foxtail, Giant damage rating; for pest or weed control at 250 g/ha: 250 g ai/ha
How it was run: as §1

[4] = system: redroot pigweed (Amaranthus retroflexus); experiment: Test G Pre-Emergence Protocol; settings: Amaranthus retroflexus, pre-emergence, 312 h, evaluated after 13 days; for pest or weed control at 15.625 g/ha: 15.625 g ai/ha; for pest or weed control at 15.625 g/ha / pest or weed control at 250 g/ha: read-out: Pigweed, Redroot damage rating (100=total damage to plant; 0=no damage to plant); for pest or weed control at 62.5 g/ha: 62.5 g ai/ha, 100=total damage to plant, 0=no damage to plant, read-out: Pigweed, Redroot damage rating; for pest or weed control at 250 g/ha: 250 g ai/ha
How it was run: as §1

[5] = system: velvetleaf (Abutilon theophrasti); experiment: Test G Pre-Emergence Protocol; settings: Abutilon theophrasti, pre-emergence, 312 h, evaluated after 13 days; for pest or weed control at 15.625 g/ha: 15.625 g ai/ha; for pest or weed control at 15.625 g/ha / pest or weed control at 250 g/ha: read-out: Velvetleaf damage rating (100=total damage to plant; 0=no damage to plant); for pest or weed control at 62.5 g/ha: 62.5 g ai/ha, 100=total damage to plant, 0=no damage to plant, read-out: Velvetleaf damage rating; for pest or weed control at 250 g/ha: 250 g ai/ha
How it was run: as §1

[6] = system: barnyardgrass (Echinochloa crus-galli); experiment: Test G Pre-Emergence Protocol; settings: Echinochloa crus-galli, pre-emergence, 312 h, evaluated after 13 days; for pest or weed control at 15.625 g/ha: 15.625 g ai/ha; for pest or weed control at 15.625 g/ha / pest or weed control at 250 g/ha: read-out: Barnyardgrass damage rating (100=total damage to plant; 0=no damage to plant); for pest or weed control at 62.5 g/ha: 62.5 g ai/ha, 100=total damage to plant, 0=no damage to plant, read-out: Barnyardgrass damage rating; for pest or weed control at 250 g/ha: 250 g ai/ha
How it was run: as §1

[7] = system: corn (Zea mays); experiment: Test G Post-Emergence Protocol; settings: Zea mays, post-emergence, 312 h, read-out: Corn damage rating; for plant injury at 15.625 g/ha: 15.625 g ai/ha, evaluated after 13 days (100=total damage to plant; 0=no damage to plant); for plant injury at 62.5 g/ha: 62.5 g ai/ha; for plant injury at 62.5 g/ha / plant injury at 250 g/ha: evaluated after 13 days, 100=total damage to plant, 0=no damage to plant; for plant injury at 250 g/ha: 250 g ai/ha
How it was run: (§2)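 Scores run 0 (no damage) to 100 (total damage) and were taken 13 days after spraying. Plants had been raised in pots for 8 days under glasshouse control (24/16 °C, 14 h photoperiod, 65% humidity) and then treated at 15.625, 62.5 or 250 g/ha.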

[8] = system: ivy-leaved morning glory (Ipomoea hederacea); experiment: Test G Post-Emergence Protocol; settings: Ipomoea, post-emergence, 312 h, read-out: Morningglory, Ivy-leaved damage rating; for pest or weed control at 15.625 g/ha: 15.625 g ai/ha, evaluated after 13 days (100=total damage to plant; 0=no damage to plant); for pest or weed control at 62.5 g/ha: 62.5 g ai/ha; for pest or weed control at 62.5 g/ha / pest or weed control at 250 g/ha: evaluated after 13 days, 100=total damage to plant, 0=no damage to plant; for pest or weed control at 250 g/ha: 250 g ai/ha
How it was run: as §2

[9] = system: giant foxtail (Setaria faberi); experiment: Test G Post-Emergence Protocol; settings: Setaria faberi, post-emergence, 312 h, read-out: Foxtail, Giant damage rating; for pest or weed control at 15.625 g/ha: 15.625 g ai/ha, evaluated after 13 days (100=total damage to plant; 0=no damage to plant); for pest or weed control at 62.5 g/ha: 62.5 g ai/ha
How it was run: as §2

[10] = system: redroot pigweed (Amaranthus retroflexus); experiment: Test G Post-Emergence Protocol; settings: Amaranthus retroflexus, post-emergence, 312 h, read-out: Pigweed, Redroot damage rating; for pest or weed control at 15.625 g/ha: 15.625 g ai/ha, evaluated after 13 days (100=total damage to plant; 0=no damage to plant); for pest or weed control at 62.5 g/ha: 62.5 g ai/ha; for pest or weed control at 62.5 g/ha / pest or weed control at 250 g/ha: evaluated after 13 days, 100=total damage to plant, 0=no damage to plant; for pest or weed control at 250 g/ha: 250 g ai/ha
How it was run: as §2

[11] = system: velvetleaf (Abutilon theophrasti); experiment: Test G Post-Emergence Protocol; settings: Abutilon theophrasti, post-emergence, 312 h, read-out: Velvetleaf damage rating; for pest or weed control at 15.625 g/ha: 15.625 g ai/ha, evaluated after 13 days (100=total damage to plant; 0=no damage to plant); for pest or weed control at 62.5 g/ha: 62.5 g ai/ha; for pest or weed control at 62.5 g/ha / pest or weed control at 250 g/ha: evaluated after 13 days, 100=total damage to plant, 0=no damage to plant; for pest or weed control at 250 g/ha: 250 g ai/ha
How it was run: as §2

[12] = system: barnyardgrass (Echinochloa crus-galli); experiment: Test G Post-Emergence Protocol; settings: Echinochloa crus-galli, post-emergence, 312 h, read-out: Barnyardgrass damage rating; for pest or weed control at 15.625 g/ha: 15.625 g ai/ha, evaluated after 13 days (100=total damage to plant; 0=no damage to plant); for pest or weed control at 62.5 g/ha: 62.5 g ai/ha; for pest or weed control at 62.5 g/ha / pest or weed control at 250 g/ha: evaluated after 13 days, 100=total damage to plant, 0=no damage to plant; for pest or weed control at 250 g/ha: 250 g ai/ha
How it was run: as §2

[13] = evaluated after 13 days, 100=total damage to plant, 0=no damage to plant

| Compound | plant injury at 15.625 g/ha [1] [%] | plant injury at 62.5 g/ha [1] [%] | plant injury at 250 g/ha [1] [%] | pest or weed control at 15.625 g/ha [2] [%] | pest or weed control at 62.5 g/ha [2] [%] | pest or weed control at 250 g/ha [2] [%] | pest or weed control at 15.625 g/ha [3] [%] | pest or weed control at 62.5 g/ha [3] [%] | pest or weed control at 250 g/ha [3] [%] | pest or weed control at 15.625 g/ha [4] [%] | pest or weed control at 62.5 g/ha [4] [%] | pest or weed control at 250 g/ha [4] [%] | pest or weed control at 15.625 g/ha [5] [%] | pest or weed control at 62.5 g/ha [5] [%] | pest or weed control at 250 g/ha [5] [%] | pest or weed control at 15.625 g/ha [6] [%] | pest or weed control at 62.5 g/ha [6] [%] | pest or weed control at 250 g/ha [6] [%] | plant injury at 15.625 g/ha [7] [%] | plant injury at 62.5 g/ha [7] [%] | further results |
| --- | --- | --- | --- | --- | --- | --- | --- | --- | --- | --- | --- | --- | --- | --- | --- | --- | --- | --- | --- | --- | --- |
| COC(=O)c1cc([C@H]2CN(C)C(=O)[C@@H]2C(=O)Nc2ccccc2F)ccc1F (racemic) [Compound 1682] | 0 | 0 | 0 | 0 | 0 | 0 | 0 | 0 | 0 | 0 | 0 | 0 | 0 | 0 | 0 | 0 | 0 | 0 | 0 | 0 | plant injury at 250 g/ha [7]: 0%; pest or weed control at 15.625 g/ha [8]: 0%; pest or weed control at 62.5 g/ha [8]: 0%; pest or weed control at 250 g/ha [8]: 0%; pest or weed control at 15.625 g/ha [9]: 0%; pest or weed control at 62.5 g/ha [9, 13]: 0%; pest or weed control at 15.625 g/ha [10]: 0%; pest or weed control at 62.5 g/ha [10]: 0%; pest or weed control at 250 g/ha [10]: 0%; pest or weed control at 15.625 g/ha [11]: 0%; pest or weed control at 62.5 g/ha [11]: 0%; pest or weed control at 250 g/ha [11]: 0%; pest or weed control at 15.625 g/ha [12]: 0%; pest or weed control at 62.5 g/ha [12]: 0%; pest or weed control at 250 g/ha [12]: 0% |
| CN1C[C@H](c2cccc(C(F)(F)F)c2)[C@@H](C(=O)Nc2cnccc2C#N)C1=O (racemic) [Compound 1761] | 0 | 0 | 0 | 0 | 0 | 0 | 0 | 40 | 70 | 0 | 0 | 0 | 0 | 0 | 0 | 0 | 30 | 70 | 0 | 0 | plant injury at 250 g/ha [7]: 0%; pest or weed control at 15.625 g/ha [8]: 0%; pest or weed control at 62.5 g/ha [8]: 40%; pest or weed control at 250 g/ha [8]: 50%; pest or weed control at 15.625 g/ha [9]: 0%; pest or weed control at 62.5 g/ha [9, 13]: 0%; pest or weed control at 250 g/ha ([9]; 250 g ai/ha, evaluated after 13 days, 100=total damage to plant, 0=no damage to plant): 70%; pest or weed control at 15.625 g/ha [10]: 0%; pest or weed control at 62.5 g/ha [10]: 0%; pest or weed control at 250 g/ha [10]: 10%; pest or weed control at 15.625 g/ha [11]: 0%; pest or weed control at 62.5 g/ha [11]: 0%; pest or weed control at 250 g/ha [11]: 10%; pest or weed control at 15.625 g/ha [12]: 0%; pest or weed control at 62.5 g/ha [12]: 0%; pest or weed control at 250 g/ha [12]: 70% |
